Molecules are shown by their SMILES.

This experiment deals with T1, human GluN1/GluN2B NMDA receptors (Homo sapiens, UniProt Q13224).
T1 construct: expressed in transfected cells
T1 sequence (Q13224 27-1484, other chains not shown): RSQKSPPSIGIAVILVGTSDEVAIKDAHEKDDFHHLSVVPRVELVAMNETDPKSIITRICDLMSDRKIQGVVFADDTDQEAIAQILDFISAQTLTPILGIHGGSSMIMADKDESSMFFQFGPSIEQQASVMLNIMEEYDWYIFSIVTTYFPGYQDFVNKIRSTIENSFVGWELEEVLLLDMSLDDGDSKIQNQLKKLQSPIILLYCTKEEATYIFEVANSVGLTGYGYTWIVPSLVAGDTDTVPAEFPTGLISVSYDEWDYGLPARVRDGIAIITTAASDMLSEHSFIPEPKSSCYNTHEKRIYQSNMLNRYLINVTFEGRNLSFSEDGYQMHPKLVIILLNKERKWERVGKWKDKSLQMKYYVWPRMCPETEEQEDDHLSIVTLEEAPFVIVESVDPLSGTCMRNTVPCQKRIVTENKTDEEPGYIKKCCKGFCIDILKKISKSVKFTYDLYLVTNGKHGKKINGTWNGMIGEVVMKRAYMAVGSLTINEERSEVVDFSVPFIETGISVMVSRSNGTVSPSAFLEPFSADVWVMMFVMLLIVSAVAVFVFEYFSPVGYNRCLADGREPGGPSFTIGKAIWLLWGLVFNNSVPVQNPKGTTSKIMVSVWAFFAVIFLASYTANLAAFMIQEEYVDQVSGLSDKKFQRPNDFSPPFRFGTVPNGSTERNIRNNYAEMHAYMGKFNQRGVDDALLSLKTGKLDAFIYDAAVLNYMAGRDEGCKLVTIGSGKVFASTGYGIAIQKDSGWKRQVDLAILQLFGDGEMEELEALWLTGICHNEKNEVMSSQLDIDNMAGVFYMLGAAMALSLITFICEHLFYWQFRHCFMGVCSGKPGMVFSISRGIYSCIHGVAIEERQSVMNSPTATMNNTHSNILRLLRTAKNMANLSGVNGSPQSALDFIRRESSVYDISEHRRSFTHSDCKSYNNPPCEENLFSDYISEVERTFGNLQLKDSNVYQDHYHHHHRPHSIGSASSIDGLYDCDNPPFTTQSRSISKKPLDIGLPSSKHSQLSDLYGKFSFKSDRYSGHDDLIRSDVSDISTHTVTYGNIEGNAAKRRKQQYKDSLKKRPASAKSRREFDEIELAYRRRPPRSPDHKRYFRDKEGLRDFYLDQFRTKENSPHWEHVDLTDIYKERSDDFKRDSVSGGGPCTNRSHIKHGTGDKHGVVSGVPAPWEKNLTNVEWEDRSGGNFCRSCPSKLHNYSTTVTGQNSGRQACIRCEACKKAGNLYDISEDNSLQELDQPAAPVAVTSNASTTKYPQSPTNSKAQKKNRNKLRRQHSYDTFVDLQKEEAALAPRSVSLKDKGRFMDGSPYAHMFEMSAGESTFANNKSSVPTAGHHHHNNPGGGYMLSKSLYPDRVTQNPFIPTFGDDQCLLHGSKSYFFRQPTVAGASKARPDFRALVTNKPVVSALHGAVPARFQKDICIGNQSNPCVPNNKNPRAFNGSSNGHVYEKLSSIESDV
Nature of the experiment: Cell-based calcium flux (FLIPR) assay on cloned human NR1/NR2B ion channels expressed in mammalian cells (standard and HTS buffer variants).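 Note: stable Tet-On inducible cell line, Ca2+ influx triggered by glutamate at about EC40 plus 10 µM glycine, fluorescent dye read-out over 5 min, normalized to control wells.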 The conditions noted are these: standard assay buffer (0.5 mM MgCl2 in dye loading buffer; 137 mM NaCl, 4 mM KCl in assay buffer), human GluN1/GluN2B, read-out: NR2B IC50 (μM) standard assay. On the technique in general: A change in cytosolic calcium serves as a functional read-out for many receptors and channels.
What is called IC50 is the point on the concentration scale where inhibition reaches its midpoint. With `CCC(=O)Cn1c(=O)n(C)c2ncc(-c3ccc(F)c(C)c3)cc21` [Example 389, 6-(4-Fluoro-3-methyl-phenyl)-3-methyl-1-(2-oxobutyl)imidazo[4,5-b]pyridin-2-one], the IC50 came to 0.017 µM. For the compound `CCC(=O)Cn1c(=O)n(C)c2ncc(-c3ccc(F)c(F)c3)cc21` [Example 390, 6-(3,4-Difluorophenyl)-3-methyl-1-(2-oxobutyl)imidazo[4,5-b]pyridin-2-one], the IC50 was determined as 0.019 µM.

For `CCC(=O)Cn1c(=O)n(C)c2ncc(-c3ccc(F)c(C)c3F)cc21` [Example 391, 6-(2,4-Difluoro-3-methyl-phenyl)-3-methyl-1-(2-oxobutyl)imidazo[4,5-b]pyridin-2-one], the IC50 amounted to 0.026 µM. For `CCC(=O)Cn1c(=O)n(C)c2ncc(-c3cccc(C4CC4)c3)cc21` [Example 392, 6-(3-Cyclopropylphenyl)-3-methyl-1-(2-oxobutyl)imidazo[4,5-b]pyridin-2-one] the value was 0.324 µM. With `Cc1c(F)ccc(-c2cnc3c(c2)n(CC(=O)N2CC(F)C2)c(=O)n3C)c1F` [Example 400, 6-(2,4-Difluoro-3-methyl-phenyl)-1-[2-(3-fluoroazetidin-1-yl)-2-oxo-ethyl]-3-methyl-imidazo[4,5-b]pyridin-2-one], the IC50 was 0.017 µM.

As for `Cc1cc(-c2cnc3c(c2)n(CC(=O)N2CC(F)C2)c(=O)n3C)ccc1F` [Example 401, 1-[2-(3-Fluoroazetidin-1-yl)-2-oxo-ethyl]-6-(4-fluoro-3-methyl-phenyl)-3-methyl-imidazo[4,5-b]pyridin-2-one], the IC50 is 0.016 µM. For `Cn1c(=O)n(CC(=O)N2CC(F)C2)c2cc(-c3cc(F)c(F)c(F)c3)cnc21` [Example 402, 1-[2-(3-Fluoroazetidin-1-yl)-2-oxo-ethyl]-3-methyl-6-(3,4,5-trifluorophenyl)imidazo[4,5-b]pyridin-2-one] the value was 0.016 µM; for `Cn1c(=O)n(CC(=O)N2CC(F)C2)c2cc(-c3ccc(F)c(F)c3)cnc21` [Example 403, 6-(3,4-Difluorophenyl)-1-[2-(3-fluoroazetidin-1-yl)-2-oxo-ethyl]-3-methyl-imidazo[4,5-b]pyridin-2-one], 0.042 µM; for `Cc1cccc(-c2cnc3c(c2)n(CC(=O)N2CC(F)C2)c(=O)n3C)c1` [Example 404, 1-[2-(3-Fluoroazetidin-1-yl)-2-oxo-ethyl]-3-methyl-6-(m-tolyl)imidazo[4,5-b]pyridin-2-one], 0.05 µM. As for `Cc1cccc(-c2cnc3c(c2)n(CC(=O)N2CC(F)C2)c(=O)n3C)c1F` [Example 405, 1-[2-(3-Fluoroazetidin-1-yl)-2-oxo-ethyl]-6-(2-fluoro-3-methyl-phenyl)-3-methyl-imidazo[4,5-b]pyridin-2-one], the IC50 stood at 0.022 µM. For `Cn1c(=O)n(CC(=O)N2CC(F)C2)c2cc(-c3cccc(Cl)c3)cnc21` [Example 406, 6-(3-Chlorophenyl)-1-[2-(3-fluoroazetidin-1-yl)-2-oxo-ethyl]-3-methyl-imidazo[4,5-b]pyridin-2-one] the value was 0.016 µM; for `Cn1c(=O)n(CC(=O)N2CC(F)C2)c2cc(-c3ccc(F)c(C(F)(F)F)c3)cnc21` [Example 407, 1-[2-(3-Fluoroazetidin-1-yl)-2-oxo-ethyl]-6-[4-fluoro-3-(trifluoromethyl)phenyl]-3-methyl-imidazo[4,5-b]pyridin-2-one], 0.031 µM; for `Cn1c(=O)n(CC(=O)N2CCC2)c2cc(-c3cccc(C(F)(F)F)c3)cnc21` [Example 408, 1-[2-(Azetidin-1-yl)-2-oxo-ethyl]-3-methyl-6-[3-(trifluoromethyl)phenyl]imidazo[4,5-b]pyridin-2-one], 0.042 µM. For `Cc1c(F)ccc(-c2cnc3c(c2)n(CC(=O)N2CCC2)c(=O)n3C)c1F` [Example 409, 1-[2-(Azetidin-1-yl)-2-oxo-ethyl]-6-(2,4-difluoro-3-methyl-phenyl)-3-methyl-imidazo[4,5-b]pyridin-2-one] the value was 0.008 µM; for `Cn1c(=O)n(CC(=O)N2CCC2)c2cc(-c3cc(F)c(F)c(F)c3)cnc21` [Example 411, 1-[2-(Azetidin-1-yl)-2-oxo-ethyl]-3-methyl-6-(3,4,5-trifluorophenyl)imidazo[4,5-b]pyridin-2-one], 0.014 µM; for `Cn1c(=O)n(CC(=O)N2CCC2)c2cc(-c3cc(F)cc(F)c3)cnc21` [Example 412, 1-[2-(Azetidin-1-yl)-2-oxo-ethyl]-6-(3,5-difluorophenyl)-3-methyl-imidazo[4,5-b]pyridin-2-one], 0.027 µM. For the compound `Cc1cc(-c2cnc3c(c2)n(CC(=O)N2CC(F)(F)C2)c(=O)n3C)ccc1F` [Example 413, 1-(2-(3,3-Difluoroazetidin-1-yl)-2-oxoethyl)-6-(4-fluoro-3-methylphenyl)-3-methyl-1H-imidazo[4,5-b]pyridin-2(3H)-one], the IC50 is 0.009 µM. With `Cc1c(F)ccc(-c2cnc3c(c2)n(CC(=O)N2CC(F)(F)C2)c(=O)n3C)c1F` [Example 414, 1-[2-(3,3-Difluoroazetidin-1-yl)-2-oxo-ethyl]-6-(2,4-difluoro-3-methyl-phenyl)-3-methyl-imidazo[4,5-b]pyridin-2-one] the figure was 0.013 µM. In the case of `Cn1c(=O)n(CC(=O)N2CC(F)(F)C2)c2cc(-c3cccc(C(F)(F)F)c3F)cnc21` [Example 415, 1-[2-(3,3-Difluoroazetidin-1-yl)-2-oxo-ethyl]-6-[2-fluoro-3-(trifluoromethyl)phenyl]-3-methyl-imidazo[4,5-b]pyridin-2-one], the IC50 came to 0.015 µM. With `Cn1c(=O)n(CC(=O)N2CC(F)(F)C2)c2cc(-c3ccc(F)c(F)c3)cnc21` [Example 416, 1-[2-(3,3-Difluoroazetidin-1-yl)-2-oxo-ethyl]-6-(3,4-difluorophenyl)-3-methyl-imidazo[4,5-b]pyridin-2-one] the figure was 0.01 µM; with `Cn1c(=O)n(CC(=O)N2CC(F)(F)C2)c2cc(-c3cccc(F)c3)cnc21` [Example 417, 1-[2-(3,3-Difluoroazetidin-1-yl)-2-oxo-ethyl]-6-(3-fluorophenyl)-3-methyl-imidazo[4,5-b]pyridin-2-one], 0.031 µM; with `Cc1cccc(-c2cnc3c(c2)n(CC(=O)N2CC(F)(F)C2)c(=O)n3C)c1F` [Example 418, 1-[2-(3,3-Difluoroazetidin-1-yl)-2-oxo-ethyl]-6-(2-fluoro-3-methyl-phenyl)-3-methyl-imidazo[4,5-b]pyridin-2-one], 0.019 µM. For `CN(C)C(=O)Cn1c(=O)n(C)c2ncc(-c3cccc(C(F)(F)F)c3)cc21` [Example 419, N,N-Dimethyl-2-[3-methyl-2-oxo-6-[3-(trifluoromethyl)phenyl]imidazo[4,5-b]pyridin-1-yl]acetamide] the value was 0.047 µM; for `Cc1cc(-c2cnc3c(c2)n(CC(=O)N(C)C)c(=O)n3C)ccc1F` [Example 420, 2-[6-(4-Fuoro-3-methyl-phenyl)-3-methyl-2-oxo-imidazo[4,5-b]pyridin-1-yl]-N,N-dimethyl-acetamide], 0.017 µM; for `CN(C)C(=O)Cn1c(=O)n(C)c2ncc(-c3ccc(F)c(F)c3)cc21` [Example 421, 2-[6-(3,4-Difluorophenyl)-3-methyl-2-oxo-imidazo[4,5-b]pyridin-1-yl]-N,N-dimethyl-acetamide], 0.053 µM.

As to `Cn1c(=O)n(CC(=O)N2CCC2)c2cc(-c3ccc(F)c(F)c3)cnc21` [Example 422, 1-[2-(Azetidin-1-yl)-2-oxo-ethyl]-6-(3,4-difluorophenyl)-3-methyl-imidazo[4,5-b]pyridin-2-one], the IC50 came to 0.01 µM. For `Cc1c(F)ccc(-c2cnc3c(c2)n(CC(=O)N(C)C)c(=O)n3C)c1F` [Example 423, 2-[6-(2,4-Difluoro-3-methyl-phenyl)-3-methyl-2-oxo-imidazo[4,5-b]pyridin-1-yl]-N,N-dimethyl-acetamide] the value was 0.006 µM; for `CN(C)C(=O)Cn1c(=O)n(C)c2ncc(-c3cccc(C(F)(F)F)c3F)cc21` [Example 424, 2-[6-[2-Fluoro-3-(trifluoromethyl)phenyl]-3-methyl-2-oxo-imidazo[4,5-b]pyridin-1-yl]-N,N-dimethyl-acetamide], 0.028 µM. For `CN(C)C(=O)Cn1c(=O)n(C)c2ncc(-c3cccc(F)c3F)cc21` [Example 425, 2-[6-(2,3-Difluorophenyl)-3-methyl-2-oxo-imidazo[4,5-b]pyridin-1-yl]-N,N-dimethyl-acetamide] the value was 0.408 µM.

In the case of `CN(C)C(=O)Cn1c(=O)n(C)c2ncc(-c3cccc(C(F)F)c3)cc21` [Example 426, 2-[6-[3-(Difluoromethyl)phenyl]-3-methyl-2-oxo-imidazo[4,5-b]pyridin-1-yl]-N,N-dimethyl-acetamide], the IC50 worked out at 0.019 µM. For `Cc1cccc(-c2cnc3c(c2)n(CC(=O)N(C)C)c(=O)n3C)c1F` [Example 427, 2-[6-(2-Fluoro-3-methyl-phenyl)-3-methyl-2-oxo-imidazo[4,5-b]pyridin-1-yl]-N,N-dimethyl-acetamide] the value was 0.041 µM; for `CN(C)C(=O)Cn1c(=O)n(C)c2ncc(-c3cc(F)cc(F)c3)cc21` [Example 428, 2-[6-(3,5-Difluorophenyl)-3-methyl-2-oxo-imidazo[4,5-b]pyridin-1-yl]-N,N-dimethyl-acetamide], 0.126 µM; for `CN(C)C(=O)Cn1c(=O)n(C)c2ncc(-c3cccnc3)cc21` [Example 429, N,N-Dimethyl-2-[3-methyl-2-oxo-6-(3-pyridyl)imidazo[4,5-b]pyridin-1-yl]acetamide], more than 10 µM. With `Cn1c(=O)n(CC(=O)N2CC(F)(F)C2)c2cc(-c3ccc(C(F)(F)F)s3)cnc21` [Example 430, 1-[2-(3,3-Difluoroazetidin-1-yl)-2-oxo-ethyl]-3-methyl-6-[5-(trifluoromethyl)-2-thienyl]imidazo[4,5-b]pyridin-2-one] the figure was 0.028 µM; with `CN(C)C(=O)Cn1c(=O)n(C)c2ncc(-c3cc(F)c(F)c(C(F)(F)F)c3)cc21` [Example 431, 2-[6-[3,4-Difluoro-5-(trifluoromethyl)phenyl]-3-methyl-2-oxo-imidazo[4,5-b]pyridin-1-yl]-N,N-dimethyl-acetamide], 0.095 µM.

The values above are taken from US11759455B2, “Substituted 1H-imidazo[4,5-b]pyridin-2(3H)-ones and their use as GLUN2B receptor modulators” (JANSSEN PHARMACEUTICA NV, priority 2016, dated 2023).
